Laboratory results published in patent US8513161B2, “Enhancement of plant growth” (Valent Biosciences Corporation, priority 2007, dated 2013).

Assays:
cotton [1] = test: Continuous exposure pouch study, PESA salt and clothianidin on cotton; assay type: in vivo
Description: (§1) Seeds were placed in germination pouches consisting of germination paper hydrated with sterile water that was an insert in a gas-permeable 16×14 cm plastic pouch (CYG Pouch; Mega International, St. Paul, Minn.). In these examples, in pouch solution evaluation, clothianidin and PESA sodium salt were added to the sterile water in the pouch. Alternatively, imidacloprid or dinotefuran and PESA sodium salt were added to the sterile water in the pouch. The pouches were arranged in a completely randomized block design in growth racks and placed in 19-liter polycarbonate food storage containers (Rubbermaid Commercial Products, Winchester, Va.). The sealed containers were held in an upright growth cabinet maintained at 25 C with a 12 hour light: 12 hour dark photoperiod. After 6 days, the containers were removed from the growth cabinet, and the lengths of the roots and shoot were measured.

maize = test: Field study, seed treatment of maize; assay type: in vivo, Zea mays
Description: (§2) For the field studies, the seed was treated with a seed treatment formulation containing clothianidin. The rate of clothianidin was dependent on the crop species. The seed treatment formulations were amended with the appropriate concentrations of either PESA or the sodium salt of PESA. Crops were planted and grown under standard agricultural practices, and evaluated at the times indicated. The PESA or the sodium salt of PESA was prepared as described above, and was used in seed treatment either alone or in the presence of clothianidin. Maize (Zea mays) seed was treated with 0 or 0.25 milligrams of clothianidin/seed and with 0, 22, 55, or 137.5 grams PESA salt/100 kg seed.

sorghum = test: Field study, seed treatment of sorghum; assay type: in vivo
Description: as §2, with “The” for “The PESA or the”, “Sorghum” for “Maize (Zea mays)”, “200 grams” for “0.25 milligrams”, “clothianidin/100 kg (220 pound) of seed” for “clothianidin/seed”

soybean = test: Field study, seed treatment of soybean; assay type: in vivo
Description: as §2, with “The” for “The PESA or the”, “Soybean” for “Maize (Zea mays)”, “50 grams” for “0.25 milligrams”, “clothianidin/100 kg (220 pound) of seed” for “clothianidin/seed”

cotton [2] = test: Pouch assay of cotton after PESA salt and clothianidin seed treatments; assay type: in vivo; details: seed treatment; for shoot length of cotton: control 3.7; for root length of cotton: control 9.6
Description: (§3) Seed was sieved with a screen of hole size appropriate to remove broken seeds and small trash. Cracked or otherwise damaged seeds were removed. The seed was well mixed, and 50 g samples were weighed into small plastic trays. Seed treatment slurries were made by adding measured amounts of the active ingredients to sufficient water to bring them up to a standard volume, typically 2 ml. A fungicide (Maxim XL; Syngenta Agricultural Products, Greensboro, N.C.), a polymeric binder (CF-Clear; Becker-Underwood, Ames, Iowa), and a colorant (Color Coat Red; Becker-Underwood, Ames, Iowa) were also included in the slurry at label rates. A small aliquot of this slurry was applied to the seed using the Hege 11 coater (Wintersteiger, Salt Lake City, Utah) with a six-inch bowl. The slurry was deposited drop-wise on the spinning disk atomizer using a syringe.
as §1

canola = test: Field study, seed treatment of canola; assay type: in vivo, Brassica napus
Description: as §2, with “The” for “The PESA or the”, “Canola (Brassica napus)” for “Maize (Zea mays)”, “400 grams” for “0.25 milligrams”, “clothianidin/100 kg (220 pound) of seed” for “clothianidin/seed”

cotton [3] = test: Continuous exposure pouch study, PESA salt and imidacloprid on cotton; assay type: in vivo
Description: as §1, with “measured. […] Root lengths of the control and combination treatment of imidacloprid with 100 mg/liter PESA salt were similar.” for “measured.”

rice = test: Pouch study of rice, imidacloprid seed treatment with PESA salt solution in pouch; assay type: in vivo; details: for shoot length of rice: control 3.3; for root length of rice: control 10.7
Description: as §3, §1
Root lengths of the control and combination treatment of 200 grams imidacloprid/100 pounds of seed with 50 mg/liter PESA salt were similar.

[4] = clothianidin 182 g/100 pounds of seed alone
[5] = clothianidin 364 g/100 pounds of seed alone
[6] = imidacloprid 200 g/100 pounds of seed alone
[7] = imidacloprid 400 g/100 pounds of seed alone
[8] = imidacloprid 800 g/100 pounds of seed alone

For CN/C(=N\[N+](=O)[O-])NCc1cnc(Cl)s1 [Clothianidin, (E)-1-(2-chloro-1,3-thiazol-5-ylmethyl)-3-methyl-2-nitroguanidine, reference compound], the “effect on cotton root length” value (cotton [1]; continuous exposure pouch, substance alone) was “decreased the length of the root”, the “effect on cotton shoot length” value (cotton [1]; continuous exposure pouch, clothianidin alone) was “not affected” and the “shoot length of cotton” value (cotton [1]; in pouch, clothianidin 1000 mg/liter alone, control 6.1) was 6.1 cm. For the same molecule, the “root length of cotton” value (cotton [1]; in pouch, clothianidin 1000 mg/liter alone, control 11.4) was 8.9 cm, the “vigor rating of maize plants, Vigor (1-5)” value (maize; 27 days after planting, clothianidin 0.25 mg/seed alone, control 3.6) was 3.1 and the “effect on maize plant vigor” value (maize; clothianidin alone, 0.25 mg/seed) was “reduced plant vigor as compared to the control”. For the same molecule, the “root dry weight of a sample of 10 sorghum plants” value (sorghum; 73 days after planting, clothianidin 200 g/100 kg seed alone, control 148.5) was 108.7 grams, the “effect on sorghum root dry weight” value (sorghum; clothianidin alone, 200 g/100 kg seed) was “reduced root dry weight as compared to the control” and the “average plant height of soybean” value (soybean; 66 days after planting, clothianidin 50 g/100 kg seed alone, control 23.8) was 21.6 inches. The “effect on soybean plant height” value (soybean; clothianidin alone, 50 g/100 kg seed) was “reduced plant height as compared to the control”, the “effect on cotton shoot length” value (cotton [2]; Table 2) was “increased cotton shoot length” and the “shoot length of cotton” value (cotton [2]; [4]) was 4.1 cm. The “root length of cotton” value (cotton [2]; [4]) was 7.8 cm, the “shoot length of cotton” value (cotton [2]; [5]) was 4.2 cm and the “root length of cotton” value (cotton [2]; [5]) was 7.9 cm. For the same molecule, the “effect on cotton root length” value (cotton [2]; clothianidin alone 182 or 364 g/100 pounds of seed) was “reduced cotton root length”, the “vigor rating (1 = low and 5 = high) of canola plants” value (canola; 19 days after planting, clothianidin 400 g/100 kg seed alone, control 3.8) was 2.5 and the “effect on canola plant vigor” value (canola; clothianidin alone, 400 g/100 kg seed) was “reduced plant vigor as compared to the control”.
With O=[N+]([O-])N=C1NCCN1Cc1ccc(Cl)nc1 [Imidacloprid, (EZ)-1-(6-chloro-3-pyridylmethyl)-N-nitroimidazolidin-2-ylideneamine] the “effect on cotton root length” value (cotton [3]; continuous exposure pouch, imidacloprid 1000 mg/liter alone) was “decreased root length”, the “effect on cotton shoot length” value (cotton [3]; imidacloprid alone) was “not affected” and the “shoot length of cotton” value (cotton [3]; in pouch, imidacloprid 1000 mg/liter alone, control 6.2) was 6.0 cm. The “root length of cotton” value (cotton [3]; in pouch, imidacloprid 1000 mg/liter alone, control 13.3) was 7.7 cm, the “shoot length of rice” value (rice; [6]) was 3.6 cm and the “root length of rice” value (rice; [6]) was 9.6 cm. For the same molecule, the “shoot length of rice” value (rice; [7]) was 3.3 cm, the “root length of rice” value (rice; [7]) was 8.9 cm and the “shoot length of rice” value (rice; [8]) was 3.6 cm. For the same molecule, the “root length of rice” value (rice; [8]) was 8.3 cm and the “effect on rice root length” value (rice; seed treatment with imidacloprid alone) was “decreased the root length in a dose-dependent manner”.
For O=C(O)CCC(=O)NCCc1ccccc1 [PESA, N-(2-phenylethyl)succinamic acid], the “safening of maize” value (maize; conclusion from Table 12) was “safened maize against clothianidin-induced vigor reduction”.
